Where two headings read alike, the source gives them in different places.
Assay: Toxicokinetic evaluation in dogs
Format: in vivo
Conditions: beagle, dog, po; for AUC(0-t): read-out: AUC0-24 h
Procedure: Eighteen male and eighteen female beagle dogs were received from Ridglan Farms, Mt. Horeb, Wis. […] Each group consisted of four males and four females. All animals/sex/group were scheduled for the primary necropsy at the end of the 13-week treatment period.
The animals were observed twice daily for mortality and moribundity. Clinical examinations were performed daily at the time of dosing and approximately 1-2 and approximately 3 hours following dose administration. Detailed physical examinations were performed weekly. Clinical pathology evaluations (hematology, serum chemistry and urinalysis) were performed prior to the initiation of dose administration (study week-1) and prior to the scheduled necropsy (study week 13). Individual body weights were recorded weekly, beginning approximately two weeks prior to test article administration (study week-2). Mean body weights and mean body weight changes were calculated for each corresponding interval. Final body weights (fasted) were recorded prior to the scheduled necropsy. Blood samples for toxicokinetic evaluation were collected from all dogs on study days 0 and 88 at 0, 1, 2, 4, 8 and 24 hours after dose administration. […] Gross lesions were also examined from the 2.0 and 6.0 mg/kg/day groups.

[1] = female, blood, 6 mg/kg/day, female dogs, 6 mg/kg/day oral, Day 0
[2] = female, blood, 6 mg/kg/day, female dogs, 6 mg/kg/day oral, Day 88
[3] = female, blood, 20 mg/kg/day, female dogs, 20 mg/kg/day oral, Day 0
[4] = female, blood, 20 mg/kg/day, female dogs, 20 mg/kg/day oral, Day 88
[5] = female, in vivo, 2 mg/kg/day, female dogs, 2 mg/kg/day oral, Day 0
[6] = female, in vivo, 2 mg/kg/day, female dogs, 2 mg/kg/day oral, Day 88
[7] = male, blood, 2 mg/kg/day, male dogs, 2 mg/kg/day oral, Day 0
[8] = male, blood, 2 mg/kg/day, male dogs, 2 mg/kg/day oral, Day 88
[9] = male, in vivo, 6 mg/kg/day, male dogs, 6 mg/kg/day oral, Day 0
[10] = male, in vivo, 6 mg/kg/day, male dogs, 6 mg/kg/day oral, Day 88
[11] = male, in vivo, 20 mg/kg/day, male dogs, 20 mg/kg/day oral, Day 0
[12] = male, in vivo, 20 mg/kg/day, male dogs, 20 mg/kg/day oral, Day 88

Clc1ccc([C@]23CNCC2C3)cc1Cl (single isomer, unassigned; (+)) [(+)-1-(3,4-dichlorophenyl)-3-azabicyclo[3.1.0]hexane]
Tmax (female, blood, 2 mg/kg/day, female dogs, 2 mg/kg/day oral, Day 0): 1 h
Tmax (female, blood, 2 mg/kg/day, female dogs, 2 mg/kg/day oral, Day 88): 1 h
Cmax [1]: 5120 ng/mL
Tmax [1]: 1 h
AUC(0-t) [1]: 13600 ng·h/mL
Cmax [2]: 4850 ng/mL
Tmax [2]: 1 h
Cmax [3]: 9280 ng/mL
Tmax [3]: 2 h
AUC(0-t) [3]: 63600 ng·h/mL
Cmax [4]: 8430 ng/mL
Tmax [4]: 1 h
AUC(0-t) [4]: 29600 ng·h/mL
Cmax [5]: 635 ng/mL
AUC(0-t) [5]: 1470 ng·h/mL
Cmax [6]: 663 ng/mL
AUC(0-t) [6]: 2150 ng·h/mL
AUC(0-t) (female, in vivo, 6 mg/kg/day, female dogs, 6 mg/kg/day oral, Day 88): 15900 ng·h/mL
Cmax [7]: 507 ng/mL
Tmax [7]: 1 h
AUC(0-t) [7]: 1570 ng·h/mL
Cmax [8]: 753 ng/mL
Tmax [8]: 1 h
AUC(0-t) [8]: 2280 ng·h/mL
Cmax [9]: 4640 ng/mL
Tmax [9]: 1 h
AUC(0-t) [9]: 12800 ng·h/mL
Cmax [10]: 4140 ng/mL
Tmax [10]: 1 h
AUC(0-t) [10]: 13100 ng·h/mL
Cmax [11]: 11400 ng/mL
Tmax [11]: 1 h
AUC(0-t) [11]: 47800 ng·h/mL
Cmax [12]: 7230 ng/mL
Tmax [12]: 1 h
AUC(0-t) [12]: 44000 ng·h/mL
